49 molecules from ChEMBL document CHEMBL3297680, “Pharmacophore based virtual screening, molecular docking and biological evaluation to identify novel PDE5 inhibitors with vasodilatory activity” (Bioorg Med Chem Lett, 2014) can be followed below.

pIC50: −log10 of the molar value.

In assay [1] the target is cGMP-specific 3',5'-cyclic phosphodiesterase (Homo sapiens, UniProt O76074). Kind of assay: Inhibition of PDE5 (unknown origin).
The subject of assay [2] is Aorta. Kind of assay: Vasodilatory activity in phenylephrine-induced pre-contracted Wistar rat aortic ring assessed as relaxation at 10 '-2 M. It counts as functional. Set-up: scale not given: the % may be the effect or the level left.
Assay [3] relates to Aorta. Kind of assay: Vasodilatory activity in phenylephrine-induced pre-contracted Wistar rat aortic ring assessed as relaxation at 10 '-5 M. Set-up: scale not given: the % may be the effect or the level left. It counts as functional.
Assay [4] has as its system Aorta. The assay can be described thus: Vasodilatory activity in phenylephrine-induced pre-contracted Wistar rat aortic ring assessed as relaxation at 10 '-4 M. Set-up: scale not given: the % may be the effect or the level left. It counts as functional.
Assay [5] has as its system Aorta. Kind of assay: Vasodilatory activity in phenylephrine-induced pre-contracted Wistar rat aortic ring assessed as relaxation at 10 '-6 M. It counts as functional. Set-up: scale not given: the % may be the effect or the level left.

For orientation: pIC50 means the IC50 on a negative log10 scale, so that one unit is a factor of ten. As for `CC(C)CCc1nc2c([nH]1)C(=O)N(C)C1=N[C@@H]3CCC[C@@H]3N12`, the negative-log IC50 (pIC50) in assay [1] is 7.30. `CCCCCCc1nc2c([nH]1)C(=O)N(C)C1=N[C@@H]3CCC[C@@H]3N12` showed a pIC50 in assay [1] of 8.00.

In the case of `CCCc1nn(C)c2c(=O)[nH]c(-c3cc(S(=O)(=O)N4CCN(C)CC4)ccc3OCC)nc12`, the Activity in the assay on Aorta [2] and in the assay with Aorta [3] was 50% each time. In assay [1], `CCCc1nc2c([nH]1)N1C(=N[C@@H]3CCC[C@@H]31)N(C)C2=O` had a pIC50 of 6.10.

In turn, `Cc1nc2c([nH]1)C(=O)N(C)C1=N[C@@H]3CCC[C@@H]3N12` showed a pIC50 in assay [1] of 5.62. `CN1C(=O)c2c(nc(Cc3ccccc3)n2Cc2ncc[nH]2)N2C1=N[C@@H]1CCC[C@@H]12`: in assay [1], the pIC50 is 5.40.

`CN1C(=O)c2[nH]c(Cc3ccc(-c4ccccc4)cc3)nc2N2CC3(CCCC3)N=C12` showed a pIC50 in assay [1] of 7.37.

With `CCCCCCc1nc2c(n1Cc1ccccc1)C(=O)N(C)C1=N[C@@H]3CCC[C@@H]3N12`, the pIC50 in assay [1] was 6.10. With `CN1C(=O)c2[nH]c(C(F)(F)F)nc2N2C1=N[C@@H]1CCC[C@@H]12`, in assay [1], the pIC50 is 5.21. In assay [1], `CN1C(=O)c2c(nc(CC3CCCCC3)n2Cc2ccccc2)N2C1=N[C@@H]1CCC[C@@H]12` showed a pIC50 of 6.23. Molecule `CN1C(=O)c2[nH]c(C#Cc3ccccc3)nc2N2C1=N[C@@H]1CCC[C@@H]12` had a pIC50 in assay [1] of 5.22.

In assay [1], `CN1C(=O)c2c(nc(-c3ccccc3)n2Cc2ccccc2)N2CC3(CCCC3)N=C12` had a pIC50 of 7.96. `CN1C(=O)c2[nH]c(Cc3ccc(-c4ccccc4)cc3)nc2N2C1=N[C@@H]1CCC[C@@H]12` had a pIC50 in assay [1] of 7.18. Still for that read-out and setting: for `CN1C(=O)c2c(nc(Cc3ccccc3)n2Cc2ccccc2)N2C1=N[C@@H]1CCC[C@@H]12` the value was 6.74; for `CN1C(=O)c2c(nc(C#Cc3ccccc3)n2Cc2ccccc2)N2C1=N[C@@H]1CCC[C@@H]12`, 8.40. On the same count and under the same terms, to `CN1C(=O)c2[nH]c(CC3CCCC3)nc2N2C1=N[C@@H]1CCC[C@@H]12` belongs 7.47; to `CN1C(=O)c2c(nc(CC3CCCC3)n2Cc2ccccc2)N2CC3(CCCC3)N=C12`, 6.92; to `CN1C(=O)c2c(nc(Cc3ccccc3)n2CCO)N2C1=N[C@@H]1CCC[C@@H]12`, 5.00. Still for that read-out and setting: to `CN1C(=O)c2c(nc(CN3CCCC3)n2Cc2ccccc2)N2C1=N[C@@H]1CCC[C@@H]12` belongs 5.92; to `CN1C(=O)c2c(nc(Cc3ccccc3)n2CC2CCCCC2)N2C1=N[C@@H]1CCC[C@@H]12`, 6.96.

On to `Cc1nc2c(n1Cc1ccccc1)N1CC3(CCCC3)N=C1N(C)C2=O`, for which the pIC50 in assay [1] was 5.54.

The molecule `CCCc1nc2c(n1Cc1ccccc1)C(=O)N(C)C1=N[C@@H]3CCC[C@@H]3N12` had a pIC50 in assay [1] of 6.29.

Turning to `CN1C(=O)c2c(nc(Cc3ccccc3)n2Cc2cccc(O)c2O)N2C1=N[C@@H]1CCC[C@@H]12`, in assay [1], the pIC50 is 6.70. Consider `COCc1nc2c(n1Cc1ccccc1)C(=O)N(C)C1=N[C@@H]3CCC[C@@H]3N12`, for which the pIC50 in assay [1] was 6.00.

In turn, `CN1C(=O)c2c(nc(Cc3ccc(-c4ccccc4)cc3)n2Cc2ccccc2)N2C1=N[C@@H]1CCC[C@@H]12` gave a pIC50 in assay [1] of 6.52. The same measure, in the same setting: to `CN1C(=O)c2[nH]c(CN3CCCC3)nc2N2C1=N[C@@H]1CCC[C@@H]12` belongs 4.80; to `CN1C(=O)c2[nH]c(CC3CCCCC3)nc2N2C1=N[C@@H]1CCC[C@@H]12`, 7.72. On to `CCCCC(=O)c1cc(OC)cc(OC)c1`, for which the Activity with Aorta [2], with Aorta [3], in the assay with Aorta [4] and in the assay with Aorta [5] was 50% in each case. Regarding `CC(CC/N=C/c1ccccc1O)/N=C/c1ccccc1O` (centres undefined), the Activity in the assay on Aorta [4] is recorded as 50%. As for `CCOC(=O)c1cnc2nc(N)ccc2c1O`, the Activity in the assay on Aorta [2] and in the assay with Aorta [3] was 50% each time.

Regarding `CN1C(=O)c2[nH]c(CC3CCCC3)nc2N2CC3(CCCC3)N=C12`, in assay [1], the pIC50 was 7.59. Still for that read-out and setting: to `CC(C)CCc1nc2c(n1Cc1ccccc1)C(=O)N(C)C1=N[C@@H]3CCC[C@@H]3N12` belongs 6.25. Consider `Cc1nc2c([nH]1)C(=O)N(C(C)C)C1=N[C@@H]3CCC[C@@H]3N12`, for which the pIC50 in assay [1] is 6.62.

Take `CN1C(=O)c2[nH]c(-c3ccccc3)nc2N2CC3(CCCC3)N=C12`: in assay [1], the pIC50 is 5.48. The same measure, in the same setting: for `CN1C(=O)c2c(nc(CC3CCCC3)n2Cc2ccccc2)N2C1=N[C@@H]1CCC[C@@H]12` the value was 6.56; for `CN1C(=O)c2c(nc(Cc3ccc(-c4ccccc4)cc3)n2Cc2ccccc2)N2CC3(CCCC3)N=C12`, 6.70. In assay [1], `CCN1C(=O)c2[nH]c(C)nc2N2C1=N[C@@H]1CCC[C@@H]12` had a pIC50 of 7.00. Still for that read-out and setting: for `CN1C(=O)c2c(nc(Cc3ccccc3)n2C)N2CC3(CCCC3)N=C12` the value was 5.35; for `CN(C)Cc1nc2c(n1Cc1ccccc1)C(=O)N(C)C1=N[C@@H]3CCC[C@@H]3N12`, 5.25; for `CN1C(=O)c2[nH]c(CC3CC3)nc2N2C1=N[C@@H]1CCC[C@@H]12`, 6.21. Same read-out and setting: to `CN1C(=O)c2c(nc(CC3CC3)n2Cc2ccccc2)N2C1=N[C@@H]1CCC[C@@H]12` belongs 6.38. In assay [1], `CN1C(=O)c2c(nc(C(F)(F)F)n2Cc2ccccc2)N2C1=N[C@@H]1CCC[C@@H]12` had a pIC50 of 6.40. The molecule `CN1C(=O)c2[nH]c(Cc3ncc[nH]3)nc2N2C1=N[C@@H]1CCC[C@@H]12` had a pIC50 in assay [1] of 4.59. In the case of `CN1C(=O)c2c(nc(Cc3ccccc3)n2Cc2ccccc2)N2CC3(CCCC3)N=C12`, in assay [1], the pIC50 is 6.92. In assay [1], `COCc1nc2c([nH]1)N1C(=N[C@@H]3CCC[C@@H]31)N(C)C2=O` gave a pIC50 of 4.89. Same read-out and setting: for `Cc1nc2c(n1Cc1ccccc1)C(=O)N(C)C1=N[C@@H]3CCC[C@@H]3N12` the value was 6.65; for `CN1C(=O)c2c(nc(Cc3ccccc3)n2Cc2cccnc2)N2C1=N[C@@H]1CCC[C@@H]12`, 5.37; for `CN1C(=O)c2c(nc(Cc3ncc[nH]3)n2Cc2ccccc2)N2C1=N[C@@H]1CCC[C@@H]12`, 5.82.

With `CN1C(=O)c2[nH]c(Cc3ccccc3)nc2N2CC3(CCCC3)N=C12`, in assay [1], the pIC50 was 7.72.
